# Reference: patent US10124012B2, “Method for treatment of hyperglycemia and hyperlipidemia” (priority 2016, dated 2018)
# Tests used:
# DGAT2 = assay: Liver mRNA by semi-quantitative RT-PCR: DGAT2; type: in vivo, C57BL/6J mice; conditions: HFD-fed mice, oral gavage once daily 4 weeks, AnK 10, 20, 40, Feno 250, Metf 300 mg/kg/day, vs HF group
# Source text: The 4-week old male C57BL/6J mice (total amount n=63) were obtained from the National Laboratory Animal Center (Taipei, Taiwan). After acclimatization for one week, all of the mice were randomly assigned into a control (CON) group and a high-fat diet (HFD) group. […] After HFD feeding for 8 weeks, the HFD group was randomly subdivided into six groups (n=9 per group) receiving different treatments and fed on HFD. […] The HF+AnK1, HF+AnK2, and HF+AnK3 groups are collectively termed AnK-treated HFD groups in the following examples. The CON mice were administered vehicle. All treatments were administered via oral gavage once daily. After administration for 4 weeks, all mice were fasted 12 hours, and blood was collected from the retro-orbital sinus under ether anesthesia. […]
# Total RNA from liver tissue of mice was isolated with a Trizol Reagent (Molecular Research Center, Inc., Cincinnati, Ohio, USA) according to the manufacturer's instructions. The integrity of the extracted total RNA was examined by 2% agarose gel electrophoresis, and the RNA concentration was determined by the ultraviolet (UV) light absorbency at 260 nm and 280 nm (Spectrophotometer U-2800A, Hitachi). […]
# Levels of mRNA of target genes were quantified by semi-quantitative reverse transcription polymerase chain reaction (RT-PCR). […] PCR products were analyzed by 2% agarose gel and stained with ethidium bromide.
# [1] = tested on: high-fat diet-fed C57BL/6J mouse; assay: Blood glucose levels and biochemical parameters in HFD-fed mice; type: in vivo, C57BL/6J mice; conditions: for blood glucose levels: fasting, week 12, oral gavage once daily 4 weeks; for blood glucose levels / blood adiponectin levels / circulating free fatty acid (FFA) levels / circulating total cholesterol (TC) levels / circulating triglycerides (TG) levels / levels of blood insulin / levels of blood leptin: AnK 10, 20, 40, Feno 250, Metf 300 mg/kg/day; for blood adiponectin levels / circulating free fatty acid (FFA) levels / circulating total cholesterol (TC) levels / circulating triglycerides (TG) levels / levels of blood insulin / levels of blood leptin: oral gavage once daily 4 weeks
# Description: Animal studies were performed and approved under the guidelines of the Institutional Animal Care and Use Committee in Taiwan (12 Mar. 2015). […] After acclimatization for one week, all of the mice were randomly assigned into a control (CON) group and a high-fat diet (HFD) group. For the following 12 weeks, the CON group (n=9) received a control diet or a low-fat diet (Diet 12450B, Research Diets, Inc., New Brunswick, N.J., USA), while the HFD group (n=54) received a high-fat diet (Diet 12451, Research Diets, New Brunswick, N.J., USA). […] After HFD feeding for 8 weeks, the HFD group was randomly subdivided into six groups (n=9 per group) receiving different treatments and fed on HFD. […] The HF+AnK1, HF+AnK2, and HF+AnK3 groups are collectively termed AnK-treated HFD groups in the following examples. The CON mice were administered vehicle. All treatments were administered via oral gavage once daily. After administration for 4 weeks, all mice were fasted 12 hours, and blood was collected from the retro-orbital sinus under ether anesthesia. At the end of the experiment, the mice were sacrificed via carbon dioxide inhalation. Liver, adipose tissue, and skeletal muscle were collected and immediately stored at −80° C. for target gene analysis. A portion of the blood samples obtained from the retro-orbital sinus of fasted mice were immediately used to measure blood glucose levels using Sidekick glucose analyzer (YSI 1500, YSI Incorporated, Yellow Springs, USA) according to the glucose oxidase method. Heparin (30 units/mL, Sigma) was added into other portions of the blood samples. Plasma samples for the following analysis were prepared from these blood samples via centrifugation at 1600 g for 15 minutes at 4° C., followed by plasma separation within 30 minutes. Blood levels of triglycerides (TG), total cholesterol (TC), and free fatty acids (FFA) were determined using commercial assay kits in accordance with manufacturer's directions (Triglycerides-E test, Cholesterol-E test and FFA-C test, Wako Pure Chemical, Osaka, Japan). Blood levels of insulin, leptin, and adiponectin were measured by enzyme-linked immunosorbent assay (mouse insulin ELISA kit, Mercodia, Uppsala, Sweden; mouse leptin ELISA kit, Morinaga, Yokohama, Japan; mouse adiponectin ELISA kit, Crystal Chem International, Downers Grove, Ill., USA).
Structure (SMILES),mRNA levels of DGAT2 (DGAT2),glucose-lowering effect compared with metformin ([1]; AnK 40 mg/kg body weight/day vs metformin 300 mg/kg/day),"lowering of blood glucose levels ([1]; AnK at 10, 20, and 40 mg/kg body weight/day, vs HF group)","decrease of circulating TG ([1]; AnK treatment (10, 20, 40 mg/kg/day), vs HF group)",TG-lowering effect compared with fenofibrate ([1]; AnK treatment vs fenofibrate 250 mg/kg/day),blood glucose levels ([1]; vs HF group),blood adiponectin levels ([1]; vs HF group),circulating free fatty acid (FFA) levels ([1]; vs HF group),circulating total cholesterol (TC) levels ([1]; vs HF group),circulating triglycerides (TG) levels ([1]; vs HF group),levels of blood insulin ([1]; vs HF group),levels of blood leptin ([1]; vs HF group)
"C=C(CC[C@@H](C)[C@H]1CC[C@H]2C3=C(C(=O)C[C@]12C)[C@@]1(C)CC[C@@H](O)[C@](C)(O)[C@@H]1C[C@@H]3O)C(C)C(=O)O (stereo partly drawn) [AnK, 3α,4β,7β-trihydroxy-4α-methylergosta-8,24(28)-dien-11-on-25S-26-oic acid]",significantly decreased,comparable to that of metformin,26.8-36.0%,28.5-32.8%,comparable to the TG-lowering effect of fenofibrate,significantly reduced,markedly enhanced,decreased,decreased,decreased,effectively reduced,effectively reduced
"CN(C)C(=N)N=C(N)N [Metf, metformin, reference compound]",significantly decreased,–,–,–,–,significantly reduced,markedly enhanced,decreased,decreased,decreased,effectively reduced,effectively reduced
